According to ChEMBL document CHEMBL3885861, “Open TG-GATES”:

Species on record: Rattus norvegicus
Experiment: Open TG-GATES - Regimen: Single
Format: toxicity, organism-based, Sprague-Dawley
Set-up: regimen Single, gender Male, age 6 weeks
Conditions: in vivo, po, 0 mg/kg, route gavage, dose level Control; for APTT / Bas / Eos / Fbg / Ht / Lym / MCHC / MCV / Mono / PT / Plat / RBC / Ret / WBC / Hb: tissue Blood; for KIDNEY_L / KIDNEY_R / KIDNEY_TOTAL: tissue Kidney; for LIVER: tissue Liver; for ALP / ALT / AST / BUN / CRE / DBIL / GLC / IP / K / LDH / RALB / TBIL / TC / TP / gamma-GTP / PL: tissue Plasma

`CN(C)CCCN1c2ccccc2CCc2ccccc21` [IMIPRAMINE] showed a TERMINAL_BW (3 h) of 203.9 g, an APTT (3 h) of 16.9 s and a Bas (3 h) of 0.2%. The Eos (3 h) was 1%, the Fbg (3 h) was 270.6 mg/dL and the Ht (3 h) was 40.9%. For the same molecule, the Lym (3 h) was 79.2%, the MCHC (3 h) was 32.3% and the MCV (3 h) was 64.7 fL. For the same molecule, the Mono (3 h) was 2.8%, the PT (3 h) was 15.9 s and the Plat (3 h) was 112.7 x10_4/uL. The RBC (3 h) was 632.8 x10_4/ul, the Ret (3 h) was 8.2% and the WBC (3 h) was 81.7 x10_2/uL. The KIDNEY_L (3 h) was 0.9 g, the KIDNEY_R (3 h) was 0.9 g and the KIDNEY_TOTAL (3 h) was 1.7 g. The LIVER (3 h) was 9.1 g, the ALP (3 h) was 1571.6 IU/L and the ALT (3 h) was 52 IU/L. It also gave an AST (3 h) of 84.6 IU/L, a BUN (3 h) of 9 mg/dL and a CRE (3 h) of 0.2 mg/dL. The DBIL (3 h) was 0.01 mg/dL, the GLC (3 h) was 183.2 mg/dL and the IP (3 h) was 8.9 mg/dL. For the same molecule, the K (3 h) was 4 meq/L, the LDH (3 h) was 111 IU/L and the RALB (3 h) was 2.6 g/dL. For the same molecule, the TBIL (3 h) was 0.07 mg/dL, the TC (3 h) was 84 mg/dL and the TP (3 h) was 5.4 g/dL. The gamma-GTP (3 h) was 1.6 IU/L, the TERMINAL_BW (6 h) was 201.5 g and the APTT (6 h) was 15.5 s. It also gave a Bas (6 h) of 0.4%, an Eos (6 h) of 0.8% and a Fbg (6 h) of 326 mg/dL. For the same molecule, the Hb (6 h) was 12.8 g/dL, the Ht (6 h) was 39.2% and the Lym (6 h) was 73.2%. For the same molecule, the MCHC (6 h) was 32.5%, the MCV (6 h) was 63.9 fL and the Mono (6 h) was 3%. The PT (6 h) was 15.8 s, the Plat (6 h) was 112.2 x10_4/uL and the RBC (6 h) was 614.8 x10_4/ul. The Ret (6 h) was 7.6%, the WBC (6 h) was 95 x10_2/uL and the KIDNEY_L (6 h) was 0.9 g. It also gave a KIDNEY_R (6 h) of 0.9 g, a KIDNEY_TOTAL (6 h) of 1.9 g and an LIVER (6 h) of 9.1 g. The ALP (6 h) was 1465 IU/L, the ALT (6 h) was 52.8 IU/L and the AST (6 h) was 99.2 IU/L. It also gave a BUN (6 h) of 8.4 mg/dL, a CRE (6 h) of 0.2 mg/dL and a GLC (6 h) of 176.2 mg/dL. It also gave an IP (6 h) of 9.4 mg/dL, a K (6 h) of 4 meq/L and an LDH (6 h) of 80.4 IU/L. The PL (6 h) was 133.6 mg/dL, the RALB (6 h) was 2.5 g/dL and the TBIL (6 h) was 0.07 mg/dL. It also gave a TC (6 h) of 72.6 mg/dL, a TP (6 h) of 5.3 g/dL and a gamma-GTP (6 h) of 1.2 IU/L. For the same molecule, the TERMINAL_BW (9 h) was 200.5 g, the APTT (9 h) was 16 s and the Bas (9 h) was 0.4%. It also gave an Eos (9 h) of 1%, a Fbg (9 h) of 291.6 mg/dL and a Hb (9 h) of 12.9 g/dL. For the same molecule, the Ht (9 h) was 40.1%, the Lym (9 h) was 80.8% and the MCHC (9 h) was 32.3%. For the same molecule, the MCV (9 h) was 65.1 fL, the Mono (9 h) was 2.4% and the PT (9 h) was 15.3 s. It also gave a Plat (9 h) of 110.6 x10_4/uL, an RBC (9 h) of 615.4 x10_4/ul and a Ret (9 h) of 8.2%. It also gave a WBC (9 h) of 76.7 x10_2/uL, a KIDNEY_L (9 h) of 0.9 g and a KIDNEY_R (9 h) of 0.9 g. For the same molecule, the KIDNEY_TOTAL (9 h) was 1.8 g, the LIVER (9 h) was 8.2 g and the ALP (9 h) was 1396.6 IU/L. The ALT (9 h) was 37.4 IU/L, the AST (9 h) was 69.6 IU/L and the BUN (9 h) was 8 mg/dL. It also gave a CRE (9 h) of 0.1 mg/dL, a DBIL (9 h) of 0.008 mg/dL and a GLC (9 h) of 178 mg/dL. It also gave an IP (9 h) of 9.9 mg/dL, a K (9 h) of 4.1 meq/L and an LDH (9 h) of 59 IU/L. For the same molecule, the PL (9 h) was 136 mg/dL, the RALB (9 h) was 2.5 g/dL and the TBIL (9 h) was 0.068 mg/dL. The TC (9 h) was 74.4 mg/dL, the TP (9 h) was 5.2 g/dL and the gamma-GTP (9 h) was 1 IU/L. It also gave a TERMINAL_BW (24 h) of 217.3 g, an APTT (24 h) of 17.1 s and a Bas (24 h) of 0.2%. It also gave an Eos (24 h) of 1.2%, a Fbg (24 h) of 265.2 mg/dL and a Ht (24 h) of 41.7%. For the same molecule, the Lym (24 h) was 76.2%, the MCHC (24 h) was 32.1% and the MCV (24 h) was 66.7 fL. For the same molecule, the Mono (24 h) was 2.8%, the PT (24 h) was 16.1 s and the Plat (24 h) was 114.2 x10_4/uL. For the same molecule, the RBC (24 h) was 626.2 x10_4/ul, the Ret (24 h) was 7.8% and the WBC (24 h) was 93.4 x10_2/uL. For the same molecule, the KIDNEY_L (24 h) was 0.9 g, the KIDNEY_R (24 h) was 0.9 g and the KIDNEY_TOTAL (24 h) was 1.8 g. It also gave an LIVER (24 h) of 10.2 g, an ALP (24 h) of 1689.2 IU/L and an ALT (24 h) of 59 IU/L. The AST (24 h) was 83.4 IU/L, the CRE (24 h) was 0.2 mg/dL and the DBIL (24 h) was 0.02 mg/dL. The GLC (24 h) was 185.4 mg/dL, the IP (24 h) was 8.1 mg/dL and the K (24 h) was 3.9 meq/L. For the same molecule, the LDH (24 h) was 75.2 IU/L, the RALB (24 h) was 2.6 g/dL and the TBIL (24 h) was 0.06 mg/dL.
